Measurements from patent US20110190306A1, “Inhibitors of PLK” (CHROMA THERAPEUTICS LTD., priority 2008, published 2011).

Test system: HCT 116 cell line
Assay: Cell inhibition assay (WST-1 proliferation), HCT-116
Type: cell-based
Details: Homo sapiens, 72 hrs incubation, read-out: Inhibitor Activity vs HCT 116 cell line
Experimental: Cells were seeded in 96W tissue culture plates (1 well=30 mm^2) in 50 μl of the appropriate culture medium (see below). Seeding densities were cell-line dependent: HCT-116=1000 cells per well, Hut-78=2250 cells per well, U937 cells=2000 cells per well. 24 hrs later 50 μL of the compound prepared in the same medium was added as 4 fold dilutions to give final concentrations in the range 0.15 nM-2500 nM (n=6 for each concentration). The plates were then incubated at 37° C., 5% CO2 for 72 hrs. Cell proliferation was assessed using WST-1 (a metabolic indicator dye, Roche Cat no. 1 644 807) according to the manufacturers instructions. The results were calculated as percentage of vehicle response and IC50 values represent the concentration of compound that inhibited the vehicle response by 50%.
HCT-116 Culture Medium—Dulbeccos MEM (Sigma D6546) plus 10% heat inactivated fetal calf serum (Hyclone SH30071 Thermo Fischer Scientific) containing 2 mM Glutamine (Sigma cat no G-7513) and 50 U/mL Penicillin and Streptomycin Sulphate (Sigma Cat no P-0781).

IC50: 100 to 500 nM
Structure (SMILES): CC[C@@H]1C(=O)N(C)c2cnc(Nc3ccc(C(=O)NC4CCN(CC[C@](C)(N)C(=O)OC)CC4)cc3OC)nc2N1C1CCCC1 [Example 1, Methyl 4-{4-[(4-{[(7R)-8-cyclopentyl-7-ethyl-5-methyl-6-oxo-5,6,7,8-tetrahydropteridin-2-yl]amino}-3-methoxybenzoyl)amino]piperidin-1-yl}isovalinate]
